The record followed here is patent US6521623B1, “N,N'-disubstituted benzimidazolone derivatives with affinity at the serotonin and dopamine receptors” (Boehringer Ingelheim Pharma KG, priority 2000, dated 2003).

The test addresses T1, D4 human receptors (Homo sapiens, UniProt P21917).
T1 construct: expressed in transfected cells; host or cells: CHO cells
T1 sequence (P21917 1-419): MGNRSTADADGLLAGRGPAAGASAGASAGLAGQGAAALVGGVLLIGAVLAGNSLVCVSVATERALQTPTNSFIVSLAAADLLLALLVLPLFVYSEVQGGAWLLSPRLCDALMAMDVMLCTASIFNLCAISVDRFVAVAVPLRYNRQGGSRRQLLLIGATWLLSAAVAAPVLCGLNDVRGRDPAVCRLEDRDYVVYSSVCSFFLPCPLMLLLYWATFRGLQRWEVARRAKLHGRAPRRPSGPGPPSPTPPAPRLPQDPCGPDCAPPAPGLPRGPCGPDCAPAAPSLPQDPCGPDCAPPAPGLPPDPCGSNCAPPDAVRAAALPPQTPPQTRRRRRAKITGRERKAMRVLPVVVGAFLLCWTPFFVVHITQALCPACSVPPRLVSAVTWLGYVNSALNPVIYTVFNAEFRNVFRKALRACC
The experiment in a line: D4 Radioligand Receptor Binding Assay ([3H] YM-09151-2, CHO cell membranes). The following applies: compound 10^−7 M, singlicate, [3H] YM-09151-2 0.15-0.25 nM. The procedure, abridged:
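Membranes from CHO cells expressing human D4 receptor incubated with [3H] YM-09151-2 (0.15-0.25 nM) and compound at one concentration (10^−7 M, singlicate) for 120 min at 27° C, then filtered.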

The inhibition is the share of the control response that was lost under treatment.

`CCNC(=O)OCCn1c(=O)n(CCN2CCN(c3cccc(C)c3C)CC2)c2ccccc21` [Compound 215] gave an inhibition at 0.1 µM of 48%.
